This note sets out measurements from patent US7259166B2, “Substituted-cycloalkyl and oxygenated-cycloalkyl glucokinase activators” (Hoffmann-La Roche Inc., priority 2002, dated 2007).

The test system of the first data set is C57BL/6J mice. Briefly: Glucokinase activator in vivo screen (blood glucose after oral dosing). The settings on record: oral gavage 50 mg/kg, two hour fast, blood glucose at 1, 2, 4 and 6 hours post dose. How it is done:
Glucokinase Activator In Vivo Screen Protocol
C57BL/6J mice are orally dosed via gavage with Glucokinase (GK) activator at 50 mg/kg body weight following a two hour fasting period. Blood glucose determinations are made five times during the six hour post-dose study period.
Mice (n=6) are weighed and fasted for a two hour period prior to oral treatment.
Regarding `CS(=O)(=O)c1ccc(C(CC2CCOCC2)C(=O)Nc2cnc(/C(N)=N/O)cn2)cc1Cl` (stereo not shown) [Example 23], the “glucokinase activator in vivo activity when administered orally (decrease in blood glucose compared to vehicle)” value is recorded as “excellent glucokinase activator in vivo activity”.
In the case of `CO/N=C1/CCC(CC(C(=O)Nc2cnc(Br)cn2)c2ccc(S(C)(=O)=O)c(Cl)c2)C1` (stereo not shown) [Example 55, N-(5-Bromo-pyrazin-2-yl)-2-(3-chloro-4-methanesulfonyl-phenyl)-3-(3-methoxyimino-cyclopentyl)-propionamide], the “glucokinase activator in vivo activity when administered orally (decrease in blood glucose compared to vehicle)” value is listed as “excellent glucokinase activator in vivo activity”.
As to `CS(=O)(=O)c1ccc(C(CC2CCC(=O)CC2)C(=O)Nc2cnc(Br)cn2)cc1Cl` (stereo not shown) [Example 59, N-(5-Bromo-pyrazin-2-yl)-2-(3-chloro-4-methanesulfonyl-phenyl)-3-(4-oxo-cyclohexyl)-propionamide], the “glucokinase activator in vivo activity when administered orally (decrease in blood glucose compared to vehicle)” value was “excellent glucokinase activator in vivo activity”.
Still for that read-out and setting: then `CS(=O)(=O)c1ccc(C(CC2CCOCC2)C(=O)Nc2cnc(Br)cn2)cc1Cl` (stereo not shown) [Example 21, N-(5-Bromo-pyrazin-2-yl)-2-(3-chloro-4-methanesulfonyl-phenyl)-3-(tetrahydro-pyran-4-yl)-propionamide], with “excellent glucokinase activator in vivo activity”.
Same read-out and setting: then `CS(=O)(=O)c1ccc([C@@H](CC2CCC(=NO)CC2)C(=O)Nc2cnc(Br)cn2)cc1Cl` (stereo partly drawn) [Example 67, N-(5-Bromo-pyrazin-2-yl)-2(R)-(3-chloro-4-methanesulfonyl-phenyl)-3-(4-hydroxyimino-cyclohexyl)-propionamide], with “excellent glucokinase activator in vivo activity”.
Same read-out and setting: as for `CS(=O)(=O)c1ccc([C@@H](CC2CCC(=NO)CC2)C(=O)Nc2cnc(Cl)cn2)cc1Cl` (stereo partly drawn) [Example 68, 2(R)-(3-Chloro-4-methanesulfonyl-phenyl)-N-(5-chloro-pyrazin-2-yl)-3-(4-hydroxyimino-cyclohexyl)-propionamide], the entry is “excellent glucokinase activator in vivo activity”; as for `CS(=O)(=O)c1ccc(C(CC2CC/C(=N/O)C2)C(=O)Nc2cnc(Br)cn2)cc1Cl` (stereo not shown) [Example 52, N-(5-Bromo-pyrazin-2-yl)-2-(3-chloro-4-methanesulfonyl-phenyl)-3-(3-hydroxyimino-cyclopentyl)-propionamide], “excellent glucokinase activator in vivo activity”; as for `CS(=O)(=O)c1ccc([C@@H](CC2CCC(=O)CC2)C(=O)Nc2cnc(Cl)cn2)cc1Cl` [Example 61, 2(R)-(3-Chloro-4-methanesulfonyl-phenyl)-N-(5-chloro-pyrazin-2-yl)-3-(4-oxo-cyclohexyl)-propionamide], “excellent glucokinase activator in vivo activity”.
As for `CS(=O)(=O)c1ccc(C(CC2CCC(=O)C2)C(=O)Nc2cnc(Br)cn2)cc1Cl` (stereo not shown) [Example 49, N-(5-Bromo-pyrazin-2-yl)-2-(3-chloro-4-methanesulfonyl-phenyl)-3-(3-oxo-cyclopentyl)-propionamide], the “glucokinase activator in vivo activity when administered orally (decrease in blood glucose compared to vehicle)” value is given as “excellent glucokinase activator in vivo activity”.
The same measure, in the same setting: as for `CO/N=C1/CCC(CC(C(=O)Nc2cnccn2)c2ccc(S(C)(=O)=O)c(Cl)c2)C1` (stereo not shown) [Example 54, 2-(3-Chloro-4-methanesulfonyl-phenyl)-3-(3-methoxyimino-cyclopentyl)-N-pyrazin-2-yl-propionamide], the entry is “excellent glucokinase activator in vivo activity”.
In the case of `CS(=O)(=O)c1ccc(C(CC2CCC(=NO)CC2)C(=O)Nc2cnc(Br)cn2)cc1Cl` (stereo not shown) [Example 66, N-(5-Bromo-pyrazin-2-yl)-2-(3-chloro-4-methanesulfonyl-phenyl)-3-(4-hydroxyimino-cyclohexyl)-propionamide], the “glucokinase activator in vivo activity when administered orally (decrease in blood glucose compared to vehicle)” value was “excellent glucokinase activator in vivo activity”.
With `CS(=O)(=O)c1ccc([C@@H](CC2CCC(=O)CC2)C(=O)Nc2cnc(Br)cn2)cc1Cl` [Example 60, N-(5-Bromo-pyrazin-2-yl)-2(R)-(3-chloro-4-methanesulfonyl-phenyl)-3-(4-oxo-cyclohexyl)-propionamide], the “glucokinase activator in vivo activity when administered orally (decrease in blood glucose compared to vehicle)” value is recorded as “excellent glucokinase activator in vivo activity”.

Test system in a further data set: not given
Experiment: not given
Conditions: not given
In the case of `CS(=O)(=O)c1ccc(C(CC2CCOCC2)C(=O)Nc2cnc(/C(N)=N/O)cn2)cc1Cl` (stereo not shown) [Example 23], the melting point was 137.2 to 140.5 °C.
Same read-out and setting: then `CS(=O)(=O)c1ccc(C(CC2CC/C(=N/O)C2)C(=O)Nc2cnccn2)cc1Cl` (stereo not shown) [Example 51, 2-(3-Chloro-4-methanesulfonyl-phenyl)-3-(3-hydroxyimino-cyclopentyl)-N-pyrazin-2-yl-propionamide], with 205 to 207 °C; and `O=C1CCCC1CC(C(=O)Nc1nccs1)c1ccc(Cl)c(Cl)c1` (stereo not shown) [Example 28, 2-(3,4-Dichloro-phenyl)-3-(2-oxo-cyclopentyl)-N-thiazol-2-yl-propionamide], with 79 to 81 °C.
Take `O=C(Nc1nccs1)C(CC1CCCO1)c1ccc(Cl)c(Cl)c1` (stereo not shown) [Example 2, 2-(3,4-Dichloro-phenyl)-3-(tetrahydro-furan-2-yl)-N-thiazol-2-yl-propionamide]: the melting point lay in the range of 69 to 71 °C.
Regarding `CO/N=C1/CCC(CC(C(=O)Nc2cnc(Br)cn2)c2ccc(S(C)(=O)=O)c(Cl)c2)C1` (stereo not shown) [Example 55, N-(5-Bromo-pyrazin-2-yl)-2-(3-chloro-4-methanesulfonyl-phenyl)-3-(3-methoxyimino-cyclopentyl)-propionamide], the melting point is 91 to 97 °C.
In the case of `O=C1CCC(CC(C(=O)Nc2nccs2)c2ccc(Cl)c(Cl)c2)C1` (stereo not shown) [Example 43, 2-(3,4-Dichloro-phenyl)-3-(3-oxo-cyclopentyl)-N-thiazol-2-yl-propionamide], the melting point was in the range of 146 to 148 °C.
`CS(=O)(=O)c1ccc(C(CC2CCC(=O)C2)C(=O)Nc2nccs2)cc1` (stereo not shown) [Example 44, 2-(4-Methanesulfonyl-phenyl)-3-(3-oxo-cyclopentyl)-N-thiazol-2-yl-propionamide]: the melting point was in the range of 94 to 97 °C.
`CC1(O)CCC(CC(C(=O)Nc2cnccn2)c2ccc(S(C)(=O)=O)c(Cl)c2)C1` (stereo not shown) [Example 57, 2-(3-Chloro-4-methanesulfonyl-phenyl)-3-(3-hydroxy-3-methyl-cyclopentyl)-N-pyrazin-2-yl-propionamide] yielded a melting point of 78 to 84 °C.
In the case of `O=C(Nc1nccs1)C(CC1CC/C(=N/O)C1)c1ccc(Cl)c(Cl)c1` (stereo not shown) [Example 50, 2-(3,4-Dichloro-phenyl)-3-(3-hydroxyimino-cyclopentyl)-N-thiazol-2-yl-propionamide], the melting point lay in the range of 98 to 101 °C.
On to `CNC(=O)NC(=O)C(CC1CCCC1=O)c1ccc(Cl)c(Cl)c1` (stereo not shown) [Example 27, 1-[2-(3,4-Dichloro-phenyl)-3-(2-oxo-cyclopentyl)-propionyl]-3-methyl-urea], for which the melting point is 63 to 65 °C.
The same measure, in the same setting: as for `O=C(Nc1nccs1)C(CC1CCC(F)(F)C1)c1ccc(Cl)c(Cl)c1` (stereo not shown) [Example 56, 2-(3,4-Dichloro-phenyl)-3-(3,3-difluoro-cyclopentyl)-N-thiazol-2-yl-propionamide], the figure is 154 to 156 °C; as for `CS(=O)(=O)c1ccc(C(CC2CC/C(=N/O)C2)C(=O)Nc2cnc(Br)cn2)cc1Cl` (stereo not shown) [Example 52, N-(5-Bromo-pyrazin-2-yl)-2-(3-chloro-4-methanesulfonyl-phenyl)-3-(3-hydroxyimino-cyclopentyl)-propionamide], 100 to 106 °C; as for `CNC(=O)NC(=O)C(CC1CCC(O)C1)c1ccc(Cl)c(Cl)c1` (stereo not shown) [Example 35, 1-[2-(3,4-Dichloro-phenyl)-3-(3-hydroxy-cyclopentyl)-propionyl]-3-methyl-urea], 82 to 84 °C.
On the same count and under the same terms, then `CS(=O)(=O)c1ccc(C(CC2CCCC2=O)C(=O)Nc2nccs2)cc1` (stereo not shown) [Example 29, 2-(4-Methanesulfonyl-phenyl)-3-(2-oxo-cyclopentyl)-N-thiazol-2-yl-propionamide], with 228 to 230 °C; and `CO/N=C1/CCC(CC(C(=O)Nc2nccs2)c2ccc(Cl)c(Cl)c2)C1` (stereo not shown) [Example 53, 2-(3,4-Dichloro-phenyl)-3-(3-methoxyimino-cyclopentyl)-N-thiazol-2-yl-propionamide], with 69 to 72 °C.
Still for that read-out and setting: as for `CNC(=O)NC(=O)C(CC1CCC(=O)C1)c1ccc(Cl)c(Cl)c1` (stereo not shown) [Example 42, 1-[2-(3,4-Dichloro-phenyl)-3-(3-oxo-cyclopentyl)-propionyl]-3-methyl-urea], the figure is 70 to 74 °C.
For `CS(=O)(=O)c1ccc(C(CC2CCC(O)C2)C(=O)Nc2nccs2)cc1` (stereo not shown) [Example 37, 3-(3-Hydroxy-cyclopentyl)-2-(4-methanesulfonyl-phenyl)-N-thiazol-2-yl-propionamide], the melting point is 69 to 72 °C.
On the same count and under the same terms, as for `CS(=O)(=O)c1ccc(C(CC2CCCC2O)C(=O)Nc2nccs2)cc1` (stereo not shown) [Example 26, 3-(2-Hydroxy-cyclopentyl)-2-(4-methanesulfonyl-phenyl)-N-thiazol-2-yl-propionamide], the figure is 205 to 206 °C; as for `CNC(=O)NC(=O)C(CC1CCCC1O)c1ccc(Cl)c(Cl)c1` (stereo not shown) [Example 24, 1-[2-(3,4-Dichloro-phenyl)-3-(2-hydroxy-cyclopentyl)-propionyl]-3-methyl-urea], 62 to 64 °C; as for `O=C(Nc1nccs1)C(CC1CCCC1O)c1ccc(Cl)c(Cl)c1` (stereo not shown) [Example 25, 2-(3,4-Dichloro-phenyl)-3-(2-hydroxy-cyclopentyl)-N-thiazol-2-yl-propionamide], 86 to 88 °C.
`CS(=O)(=O)c1ccc(C(CC2CCC(=O)C2)C(=O)Nc2cnc(Br)cn2)cc1Cl` (stereo not shown) [Example 49, N-(5-Bromo-pyrazin-2-yl)-2-(3-chloro-4-methanesulfonyl-phenyl)-3-(3-oxo-cyclopentyl)-propionamide] gave a melting point of 97 to 103 °C.
Take `CNC(=O)NC(=O)C(CC1CCCCO1)c1ccc(Cl)c(Cl)c1` (stereo not shown) [Example 7, 1-[2-(3,4-Dichloro-phenyl)-3-(tetrahydro-pyran-2-yl)-propionyl]-3-methyl urea]: the melting point was 172.8 to 174.2 °C.
Compound `CC(=O)OC1CCC(CC(C(=O)Nc2nccs2)c2ccc(Cl)c(Cl)c2)C1` (stereo not shown) [Example 40, Acetic acid 3-[2-(3,4-dichloro-phenyl)-2-(thiazol-2-ylcarbamoyl)-ethyl]-cyclopentyl ester] gave a melting point of 49 to 52 °C.
The same measure, in the same setting: then `CO/N=C1/CCC(CC(C(=O)Nc2cnccn2)c2ccc(S(C)(=O)=O)c(Cl)c2)C1` (stereo not shown) [Example 54, 2-(3-Chloro-4-methanesulfonyl-phenyl)-3-(3-methoxyimino-cyclopentyl)-N-pyrazin-2-yl-propionamide], with 85 to 87 °C; and `CO/N=C1/CCCC1CC(C(=O)Nc1cnccn1)c1ccc(S(C)(=O)=O)c(Cl)c1` (stereo not shown) [Example 33, 2-(3-Chloro-4-methanesulfonyl-phenyl)-3-(2-methoxyimino-cyclopentyl)-N-pyrazin-2-yl-propionamide], with 74 to 76 °C.

Usually melting point stands for the temperature of the solid-liquid transition.
